Data published in patent publication US10927104B2, “Ether compounds and uses thereof” (BioTheryX, Inc., priority 2017, dated 2021).

Columns and labels:
Assay type in all cases: cell-based
IL-2 = assay: Anti-CD3-induced IL-2 secretion in PBMCs (Mesoscale); conditions: Homo sapiens, PBMC, anti-CD3 stimulated PBMCs, 24 hr, vs DMSO control, read-out: IL-2 Fold Change; for fold induction at 0.1 µM: compound at 0.1 μM; for fold induction at 1 µM: compound at 1 μM; for fold induction at 10 µM: compound 10 μM
Procedure: FIG. 4 represents Anti-CD3-induced IL-2 secretion in PBMCs. 1 μg/mL anti-CD3 (OKT-3) antibody in PBS coated onto 96-well plates overnight at 4° C. Approximately, 550,000 PBMCs were added to each well, followed by addition of DMSO only (control) or Compound 1. Induction was measured after 24 hrs as fold difference from the DMSO stimulated control.
(§1) Frozen primary blood mononuclear cells (PBMCs) were purchased from AllCells. Cells were quick thawed, washed once with RPMI-1640/10% FBS.
For the IL-2 analysis, 96 well plates were precoated with 1 μg/mL anti-human CD3 antibody (OKT3, eBioscience Inc.). After washing with PBS, Compound 1 was added (50 μL/well) followed by PBMCs diluted at 3-4 million cells/mL (150 μL/well). Plates were incubated for 24 hr and the supernatants collected for Mesoscale IL-2 analysis.
(§2) Compound activity was measured as fold difference from the DMSO control. IL-1β activity is shown in FIG. 1; IL-6 activity is shown in FIG. 2; TNFα activity is shown in FIG. 3; and IL-2 activity is shown in FIG. 4. Additional data for compounds (shown as percent inhibition) at 10 μM is shown in Table 1; at 1 μM in Table 2; and at 0.1 μM in Table 3.

IL-6 = assay: PBMC assay, LPS-induced IL-6 (Meso Scale); conditions: Homo sapiens, PBMCs, 100 ng/mL LPS 18-24 hrs; for inhibition at 0.1 µM: compound at 0.1 μM; for inhibition at 1 µM: compound at 1 μM; for inhibition at 10 µM: compound at 10 μM
Procedure: (§3) FIG. 2 represents the activity against IL-6 in peripheral blood mononuclear cells (PBMCs), plated in 96 well plates and pretreated with compound for 1 hour and then induced with 100 ng/mL LPS for 18-24 hrs. Cytokines were measured according to MesoScale protocol. Negative control wells were treated with DMSO. Compound activity was measured as a percentage of LPS-induced activity.
as §1
(§4) 1% Penicillin/1% Streptomycin and plated in 96 well plates at 200,000 cells per well. Cells were pretreated with DMSO only, or Compound 1 for 1 hour and then induced with 100 ng/mL lipopolysaccharide (LPS) for 18-24 hrs. The supernatant was analyzed for IL-1 beta, IL-6, and TNFα, using Meso Scale assay according to manufacturer's protocol. The negative control wells were treated with DMSO.
as §2

IL-1β = assay: PBMC assay, LPS-induced IL-1β (Meso Scale); conditions: Homo sapiens, PBMCs, 100 ng/mL LPS 18-24 hrs; for inhibition at 0.1 µM: compound at 0.1 μM; for inhibition at 1 µM: compound at 1 μM; for inhibition at 10 µM: compound at 10 μM
Procedure: as §3, with “FIG. 1” for “FIG. 2”, “against IL-1-beta” for “against IL-6”, “Cytokines in the media” for “Cytokines”, “activity is” for “activity was”
as §1, §4, §2

MV-4-11 cells = assay: Cell viability assay (CellTiter-Glo), MV-4-11 proliferation; conditions: Homo sapiens, MV4-11, 72 h, 3 days; for inhibition at 1 µM: compound at 1 μM; for inhibition at 10 µM: compound at 10 μM
Procedure: (§5) Molm-13 and MV-4-11 cells were cultivated in RPMI-1640 (10% FBS/1% pen-strep) and were plated in white walled 96-well plates at 20,000 cells/well.
(§6) Cells were treated with compound at the indicated concentration or DMSO (control) and the cultures were incubated for 3 days at 37° C. and 5% CO2. Following the incubation period, 100 μL of CellTiterGlow (CTG) reagent (CellTiter-Glo® Luminescent Cell Viability Assay, Promega (Madison, Wis.)) was added to each well. Following a 10 min incubation with shaking, luminescence was measured using a Victor Wallac Luminometer.

TNFα = assay: PBMC assay, LPS-induced TNFα (Meso Scale); conditions: Homo sapiens, PBMCs, 100 ng/mL LPS 18-24 hrs; for inhibition at 0.1 µM: compound at 0.1 μM; for inhibition at 1 µM: compound at 1 μM; for inhibition at 10 µM: compound at 10 μM
Procedure: as §3, with “FIG. 3” for “FIG. 2”, “against TNFα” for “against IL-6”, “Cytokines in the media” for “Cytokines”, “protocol. The negative” for “protocol. Negative”, “activity is” for “activity was”
as §1, §4, §2

Molm-13 cells = assay: Cell viability assay (CellTiter-Glo), Molm-13 proliferation; conditions: Homo sapiens, MOLM-13, 72 h; compound at 10 μM; 3 days
Procedure: as §5, §6

| SMILES | fold induction at 0.1 µM (IL-2) | fold induction at 1 µM (IL-2) | inhibition at 0.1 µM (IL-6) [%] | inhibition at 0.1 µM (IL-1β) [%] | inhibition at 1 µM (MV-4-11 cells) [%] | inhibition at 10 µM (MV-4-11 cells) [%] | inhibition at 0.1 µM (TNFα) [%] | inhibition at 10 µM (Molm-13 cells) [%] | inhibition at 1 µM (IL-6) [%] | inhibition at 1 µM (IL-1β) [%] | inhibition at 1 µM (TNFα) [%] | fold induction at 10 µM (IL-2) | inhibition at 10 µM (IL-6) [%] | inhibition at 10 µM (IL-1β) [%] | inhibition at 10 µM (TNFα) [%] |
| --- | --- | --- | --- | --- | --- | --- | --- | --- | --- | --- | --- | --- | --- | --- | --- |
| O=C1CCC[C@H](N2Cc3c(OCc4ccc(C(=O)N5CCOCC5)cc4)cccc3C2=O)C(=O)N1 [Compound 8, (S)-3-{4-[(p-Morpholinocarbonlphenyl)methoxy]-2-isoindolinoyl}-2,7-azepanedione] | 1.8 | 2.3 | 56 | 73 | 0 | 0 | 63 | 16 | – | – | – | – | – | – | – |
| O=C1CCC[C@H](N2Cc3c(OCc4ccc(C5CCNCC5)cc4)cccc3C2=O)C(=O)N1 [Compound 4] | 1.3 | 2.3 | 43 | 72 | 0 | 0 | 81 | – | 67 | 86 | 90 | – | – | – | – |
| O=C1CCC[C@H](N2C(=O)c3cccc(OCc4ccc(CN5CCOCC5)cc4)c3C2=O)C(=O)N1 [Compound 11] | 1.2 | 1.9 | 12 | 21 | 0 | 0 | 21 | – | – | – | – | – | – | – | – |
| Cc1cnc(Nc2ccc(OCCCNCC(=O)NCc3ccc(COc4cc(F)cc5c4CN([C@H]4CCCC(=O)NC4=O)C5=O)cc3)cc2)nc1Nc1cccc(S(=O)(=O)NC(C)(C)C)c1 [Compound 21] | – | 0.9 | – | – | 0 | 97 | – | – | 8 | 6 | 20 | 1 | 7 | 11 | 30 |
| Cc1cnc(Nc2ccc(OCCCNCC(=O)NCc3ccc(COc4cc(F)cc5c4CN([C@H]4CCC(=O)NC4=O)C5=O)cc3)cc2)nc1Nc1cccc(S(=O)(=O)NC(C)(C)C)c1 [Compound 25] | 0.9 | 1 | 3 | 0 | 54 | 90 | 13 | – | 32 | 8 | 25 | – | – | – | – |
| O=C1COC[C@H](N2Cc3c(OCc4ccc(CN5CCOCC5)cc4)cccc3C2=O)C(=O)N1 [Compound 16] | – | 0.7 | – | – | 0 | 99 | – | – | 5 | 24 | 27 | 0.2 | 78 | 52 | 75 |
| Cc1cnc(Nc2ccc(OCCCNCC(=O)NCc3ccc(COc4cccc5c4CN(C4CCC(=O)NC4=O)C5=O)cc3)cc2)nc1Nc1cccc(S(=O)(=O)NC(C)(C)C)c1 (centres unmarked) [Compound 17] | – | 1.5 | – | – | 31 | 98 | – | – | 35 | 75 | 75 | 0.1 | 100 | 100 | 100 |
